From US4528375A, “Substituted 3,4-diamino-1,2,5-thiadiazoles having histamine H2 -receptor antagonist activity” (Bristol-Myers Company, priority 1984, dated 1985)

Tests used:
gastric acid secretion = test: Gastric Antisecretory Activity in the Gastric Fistula Rat; type: in vivo, Male Long Evans rats; conditions: sc; for Potency Ratio (cimetidine = 1.0): gastric fistula rat, relative to cimetidine
peptic ulcer disease = conditions: clinical evaluation, Gray et al., Lancet, 1, 8001 (1977); cited from earlier work

SMILES	Potency Ratio (cimetidine = 1.0) (gastric acid secretion)	ED50 (gastric acid secretion; Rattus norvegicus, read-out: ED50 sc) [µmol/kg]	effectiveness in the treatment of peptic ulcer disease (peptic ulcer disease)
Nc1nsnc1NCCCOc1cccc(CN2CCCCC2)c1 [Example 1, 3-Amino-4-[3-(3-piperidinomethylphenoxy)propylamino]-1,2,5-thiadiazole]	37		
CN(C)Cc1ccc(CSCCNc2nsnc2N)o1 [Example 2, 3-Amino-4-{2-[(5-dimethylaminomethyl-2-furyl)methylthio]ethylamino}-1,2,5-thiadiazole]	4.5		
Cc1cc(CSCCNc2nsnc2N)sc1CN(C)C [Example 3, 3-Amino-4-{2-[(5-dimethylaminomethyl-4-methyl-2-thienyl)methylthio]ethylamino}-1,2,5-thiadiazole]	~ 7		
Nc1nsnc1NCCCOc1cccc(CN2CCCC2)c1 [Example 4, 3-Amino-4-[3-(3-pyrrolidinomethylphenoxy)propylamino]-1,2,5-thiadiazole]	20		
CN/C(=N/CCSCc1nc[nH]c1C)NC#N [cimetidine, reference compound]		3.48	effective therapeutic agent in the treatment of peptic ulcer disease
